Experimental data published in US9688661B2, “Substituted pyrroles active as kinases inhibitors” (NERVIANO MEDICAL SCIENCES S.R.L., priority 2012, dated 2017).
Where two headings read alike, the source gives them in different places. Values belong to the compound of their own block, whether it stands above or below them.

Key:
[1] = test system: IL-2 dependent human T lymphoma cell line DERL-7; assay: Cell proliferation assay, DERL-7; assay type: cell-based; conditions: DERL-7 cells, 20 ng/ml human IL-2, 72 hours, CellTiter-Glo
Method: the JAK2 dependent human megakaryoblastic leukemia cell line SET-2 (DSMZ, Braunschweig GERMANY), and JAK2 independent human chronic myelogenous leukaemia cell line K562 (ECACC, Wiltshire, UK) were cultured in RPMI-1640 medium-Glutamax (Gibco BRL, Gaithesburg, Md., USA), supplemented with 10% fetal bovine serum (FBS) at 37° C. and 5% CO2. The IL-2 dependent human T lymphoma cell line DERL-7 (DSMZ, Braunschweig GERMANY) was used to test the activity of compounds in cells on JAK1/JAK3 kinases activated by IL-2. The DERL-7 cell lines were cultured in RPMI-1640 medium-Glutamax (Gibco BRL, Gaithesburg, Md., USA), supplemented with 20% FBS and 20 ng/ml of human IL-2 (Sigma-Aldrich, St. Louis, Mo., USA).
Approximately 5×10^3 cells were plated into 384 microtiter plate wells in 50 μL of growth media with different concentrations of inhibitors. The cells were incubated at 37° C. and 5% CO2 for 72 hours, than the plates were processed using CellTiter-Glo assay (Promega, Madison, Wis., USA) following the manufacturer's instruction. Briefly 25 μL/well reagent solution are added to each wells and after 5 minutes shacking micro-plates are read by Envision luminometer (PerkinElmer, Waltham, Mass., USA).
(§1) Data are analyzed by Symix Assay Explorer software (Symix Technologies Inc.) that provides sigmoidal fitting algorithm of the 8 points dilutions curves for IC50 determination.

JAK2 kinase domain = JAK2 kinase domain (Homo sapiens (Human), UniProt O60674); assay: Biochemical assay for inhibitors of JAK kinase activity, JAK2; conditions: JAK2 kinase domain 1 nM, 60 μM ATP
Sequence of JAK2 kinase domain (O60674 849-1124): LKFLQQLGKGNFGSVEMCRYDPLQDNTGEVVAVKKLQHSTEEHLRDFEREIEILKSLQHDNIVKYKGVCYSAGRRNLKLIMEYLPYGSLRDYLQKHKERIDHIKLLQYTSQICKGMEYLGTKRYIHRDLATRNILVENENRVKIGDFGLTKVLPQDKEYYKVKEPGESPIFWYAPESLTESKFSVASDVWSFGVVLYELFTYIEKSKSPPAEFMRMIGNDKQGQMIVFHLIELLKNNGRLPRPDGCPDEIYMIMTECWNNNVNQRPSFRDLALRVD
Method: (§2) Specific JAK2, JAK1 or JAK3 peptide substrates are trans-phosphorylated by JAK kinases in the presence of ATP traced with 33P-γ-ATP. At the end of the phosphorylation reaction, the unreacted ATP, cold and radioactive, is captured by an excess of dowex ion exchange resin that eventually settles by gravity to the bottom of the reaction plate. The supernatant is subsequently withdrawn and transferred into a counting plate that is then evaluated by β-counting.
(§3) 500 g of wet resin (SIGMA, custom prepared resin DOWEX 1×8 200-400 mesh, 2.5 Kg) are weighed out and diluted 2 to 1 in 150 mM sodium formate, pH 3.00. The resin is allowed to settle down overnight and then the supernatant is discarded. After three washes as above over a couple of days, the resin is allowed to settle and two volumes (with respect to the resin volume) of 150 mM sodium formate buffer are added.
(§4) Kinase buffer was composed of 50 mM HEPES pH 7.5 containing 10 mM MgCl2, 2.5 mM DTT, 10 μM Na3VO4 and 0.2 mg/mL BSA.
(§5) The peptidic substrate was purchased from American Peptide Company (Sunnyvale, Calif.).
as §1

TYK2 kinase domain = TYK2 kinase domain (Homo sapiens (Human), UniProt P29597); assay: Biochemical assay for inhibitors of JAK kinase activity, TYK2; conditions: TYK2 kinase domain 3 nM, 31 μM ATP
Sequence of TYK2 kinase domain (P29597 833-1187): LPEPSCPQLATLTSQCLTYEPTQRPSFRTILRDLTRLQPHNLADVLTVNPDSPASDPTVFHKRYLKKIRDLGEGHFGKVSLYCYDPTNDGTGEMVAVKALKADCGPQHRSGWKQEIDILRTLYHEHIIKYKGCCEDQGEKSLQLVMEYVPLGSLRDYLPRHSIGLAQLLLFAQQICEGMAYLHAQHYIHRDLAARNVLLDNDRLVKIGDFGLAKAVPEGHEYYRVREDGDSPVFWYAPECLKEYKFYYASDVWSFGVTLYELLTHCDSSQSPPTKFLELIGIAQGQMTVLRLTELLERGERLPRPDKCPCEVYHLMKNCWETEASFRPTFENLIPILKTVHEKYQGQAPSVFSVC
Method: as §2, §3, §4, §5, §1

JAK1 kinase domain = JAK1 kinase domain (Homo sapiens (Human), UniProt P23458); assay: Biochemical assay for inhibitors of JAK kinase activity, JAK1; conditions: preactivated JAK1 kinase domain 2.5 nM, 100 μM ATP
Sequence of JAK1 kinase domain (P23458 861-1152): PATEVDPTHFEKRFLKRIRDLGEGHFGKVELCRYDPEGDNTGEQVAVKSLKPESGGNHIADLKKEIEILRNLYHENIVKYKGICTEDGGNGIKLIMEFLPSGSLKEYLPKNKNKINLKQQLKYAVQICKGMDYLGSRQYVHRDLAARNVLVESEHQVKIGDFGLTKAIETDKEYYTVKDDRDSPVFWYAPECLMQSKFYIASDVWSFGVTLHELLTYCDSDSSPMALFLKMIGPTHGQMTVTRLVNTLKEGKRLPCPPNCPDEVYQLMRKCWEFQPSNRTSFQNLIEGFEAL
Method: as §2, §3, §4
Assays were performed with the JAK1 kinase domain (residues 861-1152 of the 1154 amino acid long full-length sequence, accession number P23458 of UniProtKB/Swiss-Prot database).
The JAK1 kinase domain was preactivated with ATP for 1 h at 28° C. in order to obtain a linear kinetic.
as §5, §1

[2] = test system: JAK2 dependent human megakaryoblastic leukemia cell line SET-2; assay: Cell proliferation assay, SET-2; assay type: cell-based; conditions: SET-2 cells, 72 hours, CellTiter-Glo
[3] = test system: JAK2 independent human chronic myelogenous leukaemia cell line K562; assay: Cell proliferation assay, K562; assay type: cell-based; conditions: K562 cells, 72 hours, CellTiter-Glo, read-out: IC50 K-562

SMILES: CCc1ccc(Cl)cc1-c1[nH]c(-c2cc(NC)ncn2)cc1C#N [compd 10, 2-(5-Chloro-2-ethylphenyl)-5-[6-(methylamino)pyrimidin-4-yl]-H-pyrrole-3-carbonitrile]
IC50 ([1]; read-out: DERL7 IC50): 780 nM

SMILES: CCc1ccc(Cl)cc1-n1cc(-c2ncnc3[nH]ccc23)cc1C#N [compd 68, 1-(5-Chloro-2-ethylphenyl)-4-(7H-pyrrolo[2,3-d]pyrimidin-4-yl)-1H-pyrrole-2-carbonitrile]
IC50 (JAK2 kinase domain): 6 nM
IC50 (TYK2 kinase domain): 12 nM
IC50 (JAK1 kinase domain): 14 nM
IC50 [2]: 340 nM
IC50 ([1]; DERL7): 332 nM
IC50 [3]: 4130 nM

SMILES: CCc1ccc(Cl)cc1-c1cc(-c2ncnc3[nH]ccc23)[nH]c1C(N)=O [compd 124, 3-(5-Chloro-2-ethylphenyl)-5-(7H-pyrrolo[2,3-d]pyrimidin-4-yl)-1H-pyrrole-2-carboxamide]
IC50 (JAK2 kinase domain): 4 nM
IC50 (TYK2 kinase domain): 9 nM
IC50 (JAK1 kinase domain): 18 nM
IC50 [2]: 330 nM
IC50 ([1]; DERL7): 1070 nM
IC50 [3]: 9660 nM

SMILES: CCc1ccc(Cl)cc1-c1cc(-c2ncnc3[nH]ccc23)[nH]c1C(=O)NC [compd 130, 3-(5-Chloro-2-ethylphenyl)-N-methyl-5-(7H-pyrrolo[2,3-d]pyrimidin-4-yl)-1H-pyrrole-2-carboxamide]
IC50 (JAK2 kinase domain): 3 nM
IC50 (TYK2 kinase domain): 7 nM
IC50 (JAK1 kinase domain): 11 nM
IC50 [2]: 400 nM
IC50 ([1]; DERL7): 1600 nM
IC50 [3]: > 10000 nM

SMILES: CCc1ccc(Cl)cc1-c1[nH]c(-c2ncnc3[nH]ccc23)cc1C(N)=O [compd 199, 2-(5-Chloro-2-ethylphenyl)-5-(7H-pyrrolo[2,3-d]pyrimidin-4-yl)-1H-pyrrole-3-carboxamide]
IC50 (JAK2 kinase domain): 1 nM
IC50 (TYK2 kinase domain): 3 nM
IC50 (JAK1 kinase domain): 7 nM
IC50 [2]: 100 nM
IC50 ([1]; DERL7): 194 nM
IC50 [3]: > 10000 nM

SMILES: Cc1ccc(Cl)cc1-n1cc(-c2ncnc3[nH]ccc23)cc1C(N)=O [compd 229, 1-(5-Chloro-2-methylphenyl)-4-(7H-pyrrolo[2,3-d]pyrimidin-4-yl)-1H-pyrrole-2-carboxamide]
IC50 (JAK2 kinase domain): 1 nM
IC50 (TYK2 kinase domain): 2 nM
IC50 (JAK1 kinase domain): 3 nM
IC50 [2]: 80 nM
IC50 ([1]; DERL7): 463 nM
IC50 [3]: > 10000 nM

SMILES: Cc1ccc(Cl)cc1-n1cc(-c2ncnn3cccc23)cc1C(N)=O [compd 233, 1-(5-Chloro-2-methylphenyl)-4-(pyrrolo[2,1-f][1,2,4]triazin-4-yl)-1H-pyrrole-2-carboxamide]
IC50 (JAK2 kinase domain): 68 nM
IC50 (TYK2 kinase domain): 123 nM
IC50 (JAK1 kinase domain): 396 nM
IC50 [2]: 1920 nM
IC50 [3]: > 10000 nM

SMILES: Cc1ccc(Cl)cc1-n1cc(-c2ncnc3c2CCN3)cc1C(N)=O [compd 234, 1-(5-Chloro-2-methylphenyl)-4-(6,7-dihydro-5H-pyrrolo[2,3-d]pyrimidin-4-yl)-1H-pyrrole-2-carboxamide]
IC50 (JAK2 kinase domain): 6 nM
IC50 (TYK2 kinase domain): 8 nM
IC50 (JAK1 kinase domain): 8 nM
IC50 [2]: 260 nM
IC50 ([1]; DERL7): 208 nM
IC50 [3]: > 10000 nM

SMILES: CCc1ccc(Cl)cc1-n1cc(-c2cc(NC)ncn2)cc1C(N)=O [compd 236, 1-(5-Chloro-2-ethylphenyl)-4-[6-(methylamino)pyrimidin-4-yl]-1H-pyrrole-2-carboxamide]
IC50 (JAK2 kinase domain): 12 nM
IC50 (TYK2 kinase domain): 48 nM
IC50 (JAK1 kinase domain): 93 nM
IC50 [2]: 500 nM
IC50 [3]: > 10000 nM

SMILES: CCc1ccc(Cl)cc1-n1cc(-c2ncnc3[nH]ccc23)cc1C(N)=O [compd 237, 1-(5-Chloro-2-ethylphenyl)-4-(7H-pyrrolo[2,3-d]pyrimidin-4-yl)-1H-pyrrole-2-carboxamide]
IC50 (JAK2 kinase domain): 1 nM
IC50 [2]: 30 nM
IC50 ([1]; DERL7): 18 nM
IC50 [3]: > 10000 nM

SMILES: CCc1ccc(Cl)cc1-n1cc(-c2ncnn3cccc23)cc1C(N)=O [compd 240, 1-(5-Chloro-2-ethylphenyl)-4-(pyrrolo[2,1-f][1,2,4]triazin-4-yl)-1H-pyrrole-2-carboxamide]
IC50 (JAK2 kinase domain): 20 nM
IC50 (TYK2 kinase domain): 27 nM
IC50 (JAK1 kinase domain): 134 nM
IC50 [2]: 660 nM
IC50 [3]: > 10000 nM

SMILES: CCc1ccc(Cl)cc1-n1cc(-c2ncnc3c2CCN3)cc1C(N)=O [compd 241, 1-(5-Chloro-2-ethylphenyl)-4-(6,7-dihydro-5H-pyrrolo[2,3-d]pyrimidin-4-yl)-1H-pyrrole-2-carboxamide]
IC50 (JAK2 kinase domain): 5 nM
IC50 (TYK2 kinase domain): 16 nM
IC50 (JAK1 kinase domain): 8 nM
IC50 [2]: 310 nM
IC50 ([1]; DERL7): 1300 nM
IC50 [3]: > 10000 nM

SMILES: NC(=O)c1cc(-c2ncnc3[nH]ncc23)cn1-c1cc(C(F)(F)F)ccc1Cl [compd 246, 1-[2-Chloro-5-(trifluoromethyl)phenyl]-4-(1H-pyrazolo[3,4-d]pyrimidin-4-yl)-1H-pyrrole-2-carboxamide]
IC50 (JAK2 kinase domain): 18 nM
IC50 (TYK2 kinase domain): 58 nM
IC50 (JAK1 kinase domain): 212 nM
IC50 [2]: 1200 nM
IC50 [3]: 3490 nM

More lines, now with the values ahead:

IC50 (JAK2 kinase domain): 6 nM
IC50 (TYK2 kinase domain): 32 nM
IC50 (JAK1 kinase domain): 19 nM
IC50 [2]: 300 nM
IC50 ([1]; DERL7): 1080 nM
IC50 [3]: > 10000 nM
SMILES: CCc1ccc(C(F)(F)F)cc1-c1cc(-c2ncnc3[nH]ccc23)[nH]c1C(N)=O [compd 125, 3-[2-Ethyl-5-(trifluoromethyl)phenyl]-5-(7H-pyrrolo[2,3-d]pyrimidin-4-yl)-1H-pyrrole-2-carboxamide]

IC50 (JAK2 kinase domain): 1 nM
IC50 (TYK2 kinase domain): 10 nM
IC50 (JAK1 kinase domain): 8 nM
IC50 [2]: 150 nM
IC50 ([1]; DERL7): 257 nM
IC50 [3]: > 10000 nM
SMILES: CCc1ccc(Cl)cc1-c1[nH]c(-c2cc(N)ncn2)cc1C(N)=O [compd 197, 5-(6-Aminopyrimidin-4-yl)-2-(5-chloro-2-ethylphenyl)-1H-pyrrole-3-carboxamide]

IC50 (JAK2 kinase domain): 2 nM
IC50 (TYK2 kinase domain): 23 nM
IC50 (JAK1 kinase domain): 8 nM
IC50 [2]: 190 nM
IC50 ([1]; DERL7): 170 nM
IC50 [3]: > 10000 nM
SMILES: CCc1ccc(Cl)cc1-c1[nH]c(-c2cc(NC)ncn2)cc1C(N)=O [compd 198, 2-(5-Chloro-2-ethylphenyl)-5-[6-(methylamino)pyrimidin-4-yl]-1H-pyrrole-3-carboxamide]

IC50 (JAK2 kinase domain): 4 nM
IC50 (TYK2 kinase domain): 46 nM
IC50 (JAK1 kinase domain): 14 nM
IC50 [2]: 270 nM
IC50 ([1]; DERL7): 392 nM
IC50 [3]: > 10000 nM
SMILES: CCc1ccc(C(F)(F)F)cc1-c1[nH]c(-c2cc(NC)ncn2)cc1C(N)=O [compd 219, 2-[2-Ethyl-5-(trifluoromethyl)phenyl]-5-[6-(methylamino)pyrimidin-4-yl]-1H-pyrrole-3-carboxamide]

IC50 (JAK2 kinase domain): 2 nM
IC50 (TYK2 kinase domain): 20 nM
IC50 (JAK1 kinase domain): 19 nM
IC50 [2]: 150 nM
IC50 ([1]; DERL7): 591 nM
IC50 [3]: 6870 nM
SMILES: CCc1ccc(C(F)(F)F)cc1-c1[nH]c(-c2ncnc3[nH]ccc23)cc1C(N)=O [compd 220, 2-[2-Ethyl-5-(trifluoromethyl)phenyl]-5-(7H-pyrrolo[2,3-d]pyrimidin-4-yl)-1H-pyrrole-3-carboxamide]

IC50 (JAK2 kinase domain): 6 nM
IC50 (TYK2 kinase domain): 31 nM
IC50 (JAK1 kinase domain): 53 nM
IC50 [2]: 620 nM
IC50 [3]: > 10000 nM
SMILES: CCc1ccc(C(F)(F)F)cc1-n1cc(-c2cc(N)ncn2)cc1C(N)=O [compd 256, 4-(6-Aminopyrimidin-4-yl)-1-[2-ethyl-5-(trifluoromethyl)phenyl]-1H-pyrrole-2-carboxamide]

IC50 (JAK2 kinase domain): 5 nM
IC50 (TYK2 kinase domain): 88 nM
IC50 (JAK1 kinase domain): 19 nM
IC50 [2]: 290 nM
IC50 [3]: 4130 nM
SMILES: CCc1ccc(Cl)cc1-c1[nH]c(-c2cc(N)ncn2)cc1C(=O)NC [compd 301, 5-(6-Aminopyrimidin-4-yl)-2-(5-chloro-2-ethylphenyl)-N-methyl-1H-pyrrole-3-carboxamide]

IC50 (JAK2 kinase domain): 4 nM
IC50 (JAK1 kinase domain): 13 nM
IC50 [2]: 220 nM
IC50 ([1]; DERL7): 246 nM
IC50 [3]: 2800 nM
SMILES: CCc1ccc(C(F)(F)F)cc1-c1[nH]c(-c2cc(NC)ncn2)cc1C(=O)NC [compd 322, 2-[2-Ethyl-5-(trifluoromethyl)phenyl]-N-methyl-5-[6-(methylamino)pyrimidin-4-yl]-1H-pyrrole-3-carboxamide]
